Consider 34 compounds from the Kinase Knowledgebase extract (Sharma et al. 2016).

SMILES strings stand for the structures. “And” between values parts separate entries of the source, which are not always exact repeats. Equal entries are not always repeated.

Assay [1] concerns the target PIK3CG;PIK3CA (human) (UniProt P48736). Briefly: Assessment of Antiproliferation Activity in MDA-MB-361 Cells.
The next assay addresses PIK3CG (human) (UniProt P48736). Briefly: Assessment of PIK3CG Kinase Activity.
The next assay deals with PIK3CA (human) (UniProt P42336). Briefly: Assessment of PIK3CA Kinase Activity.
For assay [2], the target named is PIK3CG;PIK3CA (human) (UniProt P48736). Briefly: Assessment of Antiproliferation Activity in PC3-MM2 Cells. The conditions noted are these: pc3mm2.
For assay [3] the target is unchanged. Briefly: Assessment of Antiproliferation Activity in LNCaP Cells.

Chain of PIK3CG;PIK3CA (human) (P48736 whole entry, looked up): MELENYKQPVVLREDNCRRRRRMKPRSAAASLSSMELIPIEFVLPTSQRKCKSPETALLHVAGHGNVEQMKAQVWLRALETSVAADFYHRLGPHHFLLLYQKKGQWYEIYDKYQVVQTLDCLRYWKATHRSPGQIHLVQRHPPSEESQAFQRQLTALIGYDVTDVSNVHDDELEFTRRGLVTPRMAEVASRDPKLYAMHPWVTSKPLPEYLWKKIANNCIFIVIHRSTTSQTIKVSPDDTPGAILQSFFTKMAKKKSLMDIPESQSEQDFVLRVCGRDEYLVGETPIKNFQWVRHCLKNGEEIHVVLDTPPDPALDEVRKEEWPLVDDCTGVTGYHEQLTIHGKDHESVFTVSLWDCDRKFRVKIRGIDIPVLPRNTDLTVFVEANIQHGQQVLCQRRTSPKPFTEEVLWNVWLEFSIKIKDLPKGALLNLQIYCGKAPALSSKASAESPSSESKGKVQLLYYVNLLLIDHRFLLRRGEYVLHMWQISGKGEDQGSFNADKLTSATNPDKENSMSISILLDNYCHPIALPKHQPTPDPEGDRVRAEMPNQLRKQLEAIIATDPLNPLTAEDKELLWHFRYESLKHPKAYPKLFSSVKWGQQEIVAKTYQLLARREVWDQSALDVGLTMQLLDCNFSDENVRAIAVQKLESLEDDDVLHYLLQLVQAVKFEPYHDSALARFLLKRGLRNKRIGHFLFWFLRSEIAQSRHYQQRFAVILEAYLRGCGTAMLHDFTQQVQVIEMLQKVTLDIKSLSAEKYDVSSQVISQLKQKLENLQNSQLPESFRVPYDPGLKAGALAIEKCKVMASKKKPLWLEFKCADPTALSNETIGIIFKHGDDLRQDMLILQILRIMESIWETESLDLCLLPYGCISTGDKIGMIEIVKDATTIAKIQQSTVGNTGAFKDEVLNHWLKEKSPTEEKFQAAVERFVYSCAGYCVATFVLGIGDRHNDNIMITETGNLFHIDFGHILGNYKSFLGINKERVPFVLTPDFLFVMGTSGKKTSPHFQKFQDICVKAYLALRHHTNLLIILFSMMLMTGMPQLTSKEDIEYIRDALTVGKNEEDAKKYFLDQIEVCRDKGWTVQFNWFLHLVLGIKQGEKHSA
Chain of PIK3CG (human) (P48736 whole entry, looked up): as above
Chain of PIK3CA (human) (P42336 whole entry, looked up): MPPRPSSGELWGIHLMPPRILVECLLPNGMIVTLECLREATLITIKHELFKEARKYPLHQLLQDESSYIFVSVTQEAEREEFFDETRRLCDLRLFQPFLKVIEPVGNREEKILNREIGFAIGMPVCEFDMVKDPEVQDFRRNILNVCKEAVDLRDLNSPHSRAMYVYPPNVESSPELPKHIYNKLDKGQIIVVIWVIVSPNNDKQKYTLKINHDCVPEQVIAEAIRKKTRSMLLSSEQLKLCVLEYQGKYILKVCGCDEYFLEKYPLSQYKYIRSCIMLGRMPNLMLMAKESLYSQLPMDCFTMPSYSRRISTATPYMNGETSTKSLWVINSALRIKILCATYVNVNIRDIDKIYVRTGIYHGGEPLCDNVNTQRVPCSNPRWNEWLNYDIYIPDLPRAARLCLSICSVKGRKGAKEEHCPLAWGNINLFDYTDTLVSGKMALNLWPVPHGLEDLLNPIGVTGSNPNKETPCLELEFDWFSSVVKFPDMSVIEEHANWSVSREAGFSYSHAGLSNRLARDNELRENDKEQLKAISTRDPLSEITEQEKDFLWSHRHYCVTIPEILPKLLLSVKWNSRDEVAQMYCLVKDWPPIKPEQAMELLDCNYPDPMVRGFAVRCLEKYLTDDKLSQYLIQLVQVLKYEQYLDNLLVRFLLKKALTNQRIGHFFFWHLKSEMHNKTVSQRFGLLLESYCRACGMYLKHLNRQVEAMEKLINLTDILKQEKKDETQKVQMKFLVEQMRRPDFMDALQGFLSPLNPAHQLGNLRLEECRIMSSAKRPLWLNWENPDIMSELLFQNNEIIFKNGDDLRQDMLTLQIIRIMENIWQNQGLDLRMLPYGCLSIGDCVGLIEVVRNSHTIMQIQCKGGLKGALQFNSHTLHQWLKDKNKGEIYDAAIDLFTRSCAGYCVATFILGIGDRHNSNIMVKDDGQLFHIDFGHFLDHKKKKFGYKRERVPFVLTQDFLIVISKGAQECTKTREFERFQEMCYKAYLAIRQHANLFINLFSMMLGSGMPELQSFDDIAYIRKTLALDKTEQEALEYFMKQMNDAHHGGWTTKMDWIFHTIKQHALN

Turning to `O=C(Nc1ccc(C(=O)Cc2ccccn2)cc1)Nc1ccc(-c2nc(N3CCOCC3)nc(N3CCOCC3)n2)cc1`, the concentration for half-maximal inhibition (IC50) amounted to 68 nM with PIK3CG;PIK3CA (human) [1], 23 nM against PIK3CG (human), 3 nM on PIK3CA (human) and 31 nM in the assay with PIK3CG;PIK3CA (human) [2].

Take `O=C(Nc1ccc(-c2nc(N3C[C@@H]4C[C@H]3CO4)nc(N3C[C@@H]4C[C@H]3CO4)n2)cc1)Nc1ccc(N2CCNCC2)cc1`: the IC50 with PIK3CG;PIK3CA (human) [3] was 100 nM.

`O=C(O)CNC1CCN(c2nc(-c3ccc(NC(=O)Nc4ccncc4)cc3)nc(N3CC4CCC(C3)O4)n2)CC1`: the IC50 at PIK3CG (human) amounted to 10000 nM.

Consider `CC(C)N1CCN(C(=O)c2ccc(NC(=O)Nc3ccc(-c4nc(N5CCCCC5)nc(N5CCOCC5)n4)cc3)cc2)CC1`, for which the values for the half-inhibitory concentration (IC50) with PIK3CG;PIK3CA (human) [1], against PIK3CG (human) and with PIK3CG;PIK3CA (human) [2] were 43 nM, 58.5 nM and 193 nM, respectively.

On to `CN1CCN(c2ccc(NC(=O)Nc3ccc(-c4nc(N5C6CCC5COC6)nc(N5[C@H](CO)CC[C@@H]5CO)n4)cc3)cc2)CC1`, for which the IC50 at PIK3CG (human) was 10000 nM.

As to `CN(C)CCOc1ccc(NC(=O)Nc2ccc(-c3nc(N4CCSCC4)nc(N4C5CCC4COC5)n3)cc2)cc1`, the IC50 at PIK3CG (human) was 2430 nM; against PIK3CA (human), 586 nM.

At PIK3CG (human), `CN1CCCN(c2nc(-c3ccc(NC(=O)Nc4cccnc4)cc3)nc(N3CC4CCC(C3)O4)n2)C1` registered an IC50 of 10000 nM.

With `NCCCNc1nc(-c2ccc(NC(=O)Nc3cccnc3)cc2)nc(N2CC3CCC(C2)O3)n1`, the IC50 at PIK3CG (human) was determined as 10000 nM.

Turning to `FC(F)c1nc2ccccc2n1-c1nc(N2CCOCC2)nc(N2CC3CCC(C2)O3)n1`, the IC50 against PIK3CG (human) is 43 nM; against PIK3CA (human), 24 nM.

For the compound `Nc1ccc(-c2nc(-c3ccc(NC(=O)Nc4cccnc4)cc3)nc(N3CC4CCC(C3)O4)n2)cc1`, the half-maximal inhibitory concentration (IC50) with PIK3CG;PIK3CA (human) [3] was 290 nM; at PIK3CA (human), 832 nM.

`CN(C)CCN(C)c1ccc(NC(=O)Nc2ccc(-c3nc(N4C5CCC4COC5)nc(N4C5CCC4COC5)n3)cc2)cc1`: the figures for the IC50 in the assay with PIK3CG;PIK3CA (human) [3] and at PIK3CA (human) were 2.2 nM and 6030 nM, respectively.

For `O=C(Nc1ccc(-c2nc(OCCN3CCCCC3)nc(N3CC4CCC(C3)O4)n2)cc1)Nc1cccnc1`, at PIK3CG (human), the concentration for half-maximal inhibition (IC50) came out at 10000 nM.

On to `CC(C)Nc1nc(-c2ccc(NC(=O)Nc3ccc(N4CCN(C)CC4)nc3)cc2)nc(N2CC3CCC(C2)O3)n1`, for which the concentration for half-maximal inhibition (IC50) amounted to 7030 nM against PIK3CG (human), 50 nM with PIK3CG;PIK3CA (human) [3] and 521 nM against PIK3CA (human).

Regarding `C[C@H]1COCCN1c1nc(-c2ccc(NC(=O)Nc3ccc(C(=O)NCCN4CCCC4)cc3)cc2)nc(N2CCOC[C@@H]2C)n1`, the 50% inhibitory concentration (IC50) with PIK3CG;PIK3CA (human) [1] is 26 nM; at PIK3CG (human), 378 nM; on PIK3CA (human), 22 nM; in the assay with PIK3CG;PIK3CA (human) [2], 106 nM.

As to `CN(C)CCNC(=O)c1ccc(NC(=O)Nc2ccc(-c3nc(N4CCCCC4)nc(N4CCOCC4)n3)cc2)cc1`, the IC50 at PIK3CG (human) stood at 57.5 nM; at PIK3CA (human), 3.5 nM.

`O=C(Nc1ccc(-c2nc(N3C4CCC3COC4)nc(N3C4CCC3COC4)n2)cc1)N1CCNCC1` gave a half-maximal inhibitory concentration (IC50) at PIK3CG (human) of 10000 nM.

In turn, `CC(C)Nc1nc(-c2ccc(NC(=O)NCCO)cc2)nc(N2CC3CCC(C2)O3)n1` came in with an IC50 on PIK3CG (human) of 10000 nM.

In the case of `CN(C)CCN(C)C(=O)c1ccc(NC(=O)Nc2ccc(-c3nc(N4CCC4)nc(N4CCOCC4)n3)cc2)cc1`, the values for the concentration for half-maximal inhibition (IC50) on PIK3CG (human) and against PIK3CA (human) were 36 nM and 2 nM, respectively.

In turn, `CNC(=O)Nc1ccc(-c2nc(N3CC4CCC(C3)O4)nc(N3CC4CCC(C3)O4)n2)cc1` displayed a concentration for half-maximal inhibition (IC50) against PIK3CG (human) of 10000 nM.

For `CN(C)C1CCN(c2ccc(NC(=O)Nc3ccc(-c4nc(N5C6CCC5COC6)nc(N5C6CCC5COC6)n4)cc3)cc2)CC1`, the IC50 with PIK3CG;PIK3CA (human) [3] is 1 nM; at PIK3CA (human), 3090 nM.

Turning to `FC(F)c1nc2ccccc2n1-c1nc(N2CC3CCC(C2)O3)nc(N2CC3CCC(C2)O3)n1`, the IC50 on PIK3CG (human) amounted to 459 nM; at PIK3CA (human) it was 124 nM.

Consider `CN1CCC(Nc2ccc(NC(=O)Nc3ccc(-c4nc(N5C6CCC5COC6)nc(N5C6CCC5COC6)n4)cc3)cc2)CC1`, for which the 50% inhibitory concentration (IC50) in the assay with PIK3CG;PIK3CA (human) [3] was 3 nM; on PIK3CA (human), 6340 nM.

Turning to `CC(C)Nc1nc(-c2ccc(NC(=O)NC3CC3)cc2)nc(N2CC3CCC(C2)O3)n1`, on PIK3CG (human), the 50% inhibitory concentration (IC50) worked out at 10000 nM.

Consider `CC(C)N1CCN(C(=O)c2ccc(NC(=O)Nc3ccc(-c4nc(C5CCOCC5)nc(N5CCOCC5)n4)cc3)cc2)CC1`, for which the IC50 amounted to 9.5 nM against PIK3CG (human) and 3.2 nM against PIK3CA (human).

Compound `O=C(Nc1ccc(C(=O)NCCN2CCCC2)cc1)Nc1ccc(-c2nc(O[C@H]3CCOC3)nc(N3CCOCC3)n2)cc1` showed a 50% inhibitory concentration (IC50) in the assay with PIK3CG;PIK3CA (human) [2] of 27 nM.

For `CCN(CC)C(=O)[n+]1ccc(NC(=O)Nc2ccc(-c3nc(N4CCOCC4)nc(N4C5CCC4COC5)n3)cc2)cc1`, the half-maximal inhibitory concentration (IC50) is 444 nM and 606 nM against PIK3CG (human); 36 nM and 28 nM on PIK3CA (human).

With `O=C(Nc1ccc(-c2nc(NCCO)nc(N3CC4CCC(C3)O4)n2)cc1)Nc1cccnc1`, on PIK3CG (human), the IC50 worked out at 10000 nM.

Turning to `Cc1ccc(-c2nc(-c3ccc(NC(=O)Nc4ccc(C(=O)N5CCCC5)cc4)cc3)nc(N3CCOCC3)n2)cc1`, the half-maximal inhibitory concentration (IC50) is 113 nM with PIK3CG;PIK3CA (human) [1], 72 nM on PIK3CG (human), 12.5 nM against PIK3CA (human) and 522 nM with PIK3CG;PIK3CA (human) [2].

On to `O=C(Nc1ccncc1)Nc1ccc(-c2nc(N3CCC(N4CCOCC4)CC3)nc(N3CC4CCC(C3)O4)n2)cc1`, for which the results for the half-maximal inhibitory concentration (IC50) against PIK3CG (human), with PIK3CG;PIK3CA (human) [3] and against PIK3CA (human) were 4000 nM, 1000 nM and 1850 nM, respectively.

Consider `COCCNc1ccc(NC(=O)Nc2ccc(-c3nc(N4C5CCC4COC5)nc(N4C5CCC4COC5)n3)cc2)cc1`, for which the 50% inhibitory concentration (IC50) against PIK3CG (human) was 7140 nM; with PIK3CG;PIK3CA (human) [3] it was 1.2 nM; against PIK3CA (human) it was 1100 nM.

On to `Cc1ccc(-c2nc(-c3ccc(NC(=O)Nc4cccc(C(=O)N5CCC(N(C)C)CC5)c4)cc3)nc(N3CCOCC3)n2)cc1`, for which the values for the IC50 against PIK3CG (human) and against PIK3CA (human) were 658 nM and 462 nM, respectively.

The compound `CN(C)CCN(C)C(=O)c1ccc(NC(=O)Nc2ccc(-c3nc(C4CCOCC4)nc(N4CCOCC4)n3)cc2)cc1` registered an IC50 on PIK3CA (human) of 0.8 nM.

For `CN(C)C1CCN(C(=O)c2ccc(NC(=O)Nc3ccc(-c4nc(-c5ccccc5)nc(N5CCOCC5)n4)cc3)cc2)CC1`, the IC50 with PIK3CG;PIK3CA (human) [1] came to 58 nM; against PIK3CG (human), 20.5 nM; on PIK3CA (human), 3.5 nM; with PIK3CG;PIK3CA (human) [2], 253 nM.

On to `O=C(Nc1ccc(NCCO)cc1)Nc1ccc(-c2nc(N3C4CCC3COC4)nc(N3C4CCC3COC4)n2)cc1`, for which the half-inhibitory concentration (IC50) against PIK3CG (human) came out at 8040 nM; with PIK3CG;PIK3CA (human) [3] it was 70 nM; against PIK3CA (human), 1460 nM.

A word on the IC50: it is the point on the concentration scale where inhibition reaches its midpoint. A high value points to weaker potency in that assay.
